Data on nine compounds can be found in patent publication EP4781984A1 (Beyang Therapeutics Co., Ltd., priority 2023, dated 2025).

The target in series [1] is T1, EGFR (Homo sapiens, UniProt P00533).
T1 construct: purchased Carna 08-115
Put plainly: Kinase inhibitory activity, Mobility Shift Assay (EGFR). Type of series: biochemical. As for the experimental part:
(§1) Assay for Inhibitory Activity of Compounds Against VEGFR and EGFR Kinases
(§2) This assay directly monitors the inhibitory activity of compounds on kinase phosphorylation by measuring non-phosphorylated and phosphorylated substrates in the kinase reaction using Mobility Shift Assays/IMAP™ analysis. Table 2. Reagents and Instruments
(§3) Kinase and DTT were added to 1X kinase buffer to form a 2.5X kinase solution; 10 µL of the 2.5X kinase solution was transferred to a 384-well reaction plate, and 1X kinase buffer was added to the negative control wells. The plate was incubated at room temperature for 10 minutes; FAM-labeled peptide, MgCl2, ATP, and other reagents were added to 1X kinase buffer to form a 2.5X substrate solution; 10 µL of the above 2.5X substrate solution was transferred to the 384-well reaction plate; the plate was incubated at 28°C for varying times, and then 25 µL of stop solution was added to the 384-well reaction plate to terminate the reaction. Conversion rate data were read on a CaliperEZ Reader II. […] IC50 values were fitted using XLFit excel add-in version 5.4.0.8. Y = Bottom + (Top−Bottom)/(1 + […]) [formula]
(§4) X is the log value of compound concentration, Y is the inhibition rate (% inhibition).

Series [2] can be described thus: Thermodynamic solubility test. Type of series: physicochemical. The following applies: buffer solution, aqueous buffer, thermodynamic from solid; thermodynamic solubility, room temperature, 8 hours shaking; buffers pH 2.0, 6.5, 7.4 used, pH of the tabulated value not given. As for the experimental part:
Solubility Test of Compounds
Table 9. Reagents and Instruments
After sonication for 10 minutes, they were fixed on a shaker and shaken at room temperature for 8 hours. After shaking, they were sonicated for 10 minutes and centrifuged at 13000 rpm for 15 minutes. 0.1 mL of supernatant was aspirated into a new tube, rinsed with 5 mL of buffer by shaking, and the liquid was discarded. 0.5 mL of supernatant was transferred again to a new tube, centrifuged at 13000 rpm for 15 minutes, and the supernatant was taken (diluted with water if necessary) for LC-MS injection analysis. Sample concentrations were quantified using a 3-5 point calibration curve.

Series [3] relates to melanin. Put plainly: Compound binding to melanin. It counts as in vitro ADME. The following applies: cuttlefish (Sepia officinalis), melanin suspension (1 mg/mL), percentage of free drug (not bound to melanin), 2 µM compound, melanin 1 mg/mL in PBS pH 7.4, 37°C. An excerpt: Detection of Compound Binding to Melanin
Pigmented ocular tissues contain melanin within intracellular melanosomes. Drugs bind to melanin to varying degrees, from no binding to extensive binding. Therefore, melanin binding is an important characteristic affecting ocular drug delivery and biodistribution. The ability of compounds to bind to melanin must be considered in ocular drug development.
Melanin derived from cuttlefish (Sepia officinalis) melanin was purchased from Sigma Aldrich (St Louis, MO).
First, prepare a 1 mg/mL melanin suspension in PBS (pH 7.4). As a matrix washing step, suspended particles were centrifuged at 3000 rpm for 5 minutes. The resulting pellet was resuspended in fresh PBS buffer, heated to 37°C with continuous shaking, and incubated for 1 hour. Accurately pipette 2 microliters of test compound stock solution (0.1 mM) into 98 microliters of melanin suspension (1 mg/mL), resulting in a final incubation concentration of 2 µM. Similarly, accurately pipette 2 microliters of stock solution (0.1 mM) into 98 microliters of PBS buffer (containing 0.1% BSA) as a blank control sample. Samples were incubated at 37°C for 2 hours on a shaker (80-90 rpm). Then centrifuged at room temperature. 50 microliters of supernatant was aspirated and added to 50 microliters of precipitation agent (containing internal standard). All samples above were subjected to protein precipitation, centrifuged, the supernatant was taken, diluted with water (if necessary), and then injected for analysis. Simultaneously, high-binding compounds Sunitinib and chloroquine, and the low-binding compound celecoxib were measured as positive controls. An LC-MS/MS analytical method for determining compound concentration was established. The ratio of analyte/internal standard peak areas (Aanalyte/AIS) measured in the samples, calibrated by the dilution factor, was used as the surrogate concentration for data processing. The binding rate of the compound to melanin (Fb) is calculated by the formula: Fb = 100−(Ctest)/(Ccontrol) × 100% [formula]
Ctest is the drug concentration of the compound in the melanin incubation sample or the peak area ratio of the test compound to the internal standard. Ccontrol is the drug concentration of the compound in the blank control sample or the peak area ratio of the test compound to the internal standard. Percentage of free drug (Fu%) = 100 - Fb The binding rates of the compounds of the present invention to melanin are shown in the table below: Table 11. Binding Rate of Compounds to Melanin

The nature of series [4]: Ophthalmic formulations based on polyethylene glycol series vehicles: composition and state (Example 7). Type of series: physicochemical. An excerpt: (§5) In the following ophthalmic formulation preparation examples, "solution" refers to a clear, transparent liquid without visible insoluble matter. "Near-clear solution" refers to a liquid that appears close to a solution upon visual observation but may contain a small amount of insoluble particles or have a slightly opaque color. "Suspension" refers to a liquid that is visibly turbid or opaque. "Gel" refers to a completely or partially gel-like solid.
Example 7: Ophthalmic Formulations Based on Polyethylene Glycol Series Vehicles
According to the formulation composition shown in the tables below, weigh the compound powder, add it to polyethylene glycol 400, and sonicate until dissolved or nearly dissolved (heat to 50°C if necessary). Add this to a Tris-HCl buffer solution containing hydroxypropyl-β-cyclodextrin, poloxamer 188, and gellan gum (or other viscosity modifier), vortex to mix, and prepare into an eye drop formulation.

The target in series [5] is T2, VEGFR2 (Homo sapiens, UniProt P35968).
T2 construct: purchased Carna 08-191
Put plainly: Kinase inhibitory activity, Mobility Shift Assay (VEGFR2). It counts as biochemical. As for the experimental part: as §1, §2, §3, §4

Series [6] is described as follows: Ophthalmic formulations based on in situ salt formation technology: composition and state (Example 8). Type of series: physicochemical. The following applies: Table 20, Polyoxyethylene castor oil EL 1%, 0.5M Tris 2%, pH ~7.
Text: as §5
Example 8: Ophthalmic Formulation Based on In Situ Salt Formation Technology
Therefore, by preparing ophthalmic formulation compositions based on in situ salt formation technology, the solubility of the compounds can be further improved.
According to the formulation composition shown in the table below, weigh the compound powder, add 50% of the total volume (v/v) of a 30% (w/v) aqueous solution of hydroxypropyl-β-cyclodextrin (containing surfactant), and disperse by sonication; next, add an appropriate volume of pH regulator and sonicate until clear; then, add an equal volume of buffer containing solubilizer, viscosity modifier, etc., for dilution, and immediately vortex to mix; finally, add an appropriate volume of alkali regulator to adjust the solution pH to approximately 7, to prepare an eye drop formulation.
Using the in situ salt formation method, the compound is first dispersed in a solution containing Hydroxypropyl-β-cyclodextrin, then different acids are added to adjust the pH to 3-5, allowing the compound to fully or nearly fully dissolve, followed by adding the remaining components and adjusting the pH to approximately 7. […] Based on the visual dissolution effect after acid addition, methanesulfonic acid, acetic acid, and lactic acid were preliminarily selected as pH regulators. The preliminarily selected acids were used in subsequent tests with higher compound concentrations. Table 18 Formulation Composition and State

Setting [7] is: Table 16: 2 mg/mL, Polyethylene Glycol 400 5, Poloxamer 188 1, Hydroxypropyl-β-cyclodextrin 6, Gellan Gum Gelrite 0.15, Tris-HCl Buffer (pH 6.8) 25mM.
The mark [8] stands for this setting: Table 15: 10 mg/mL, Polyethylene glycol 400 10, Hydroxypropyl-β-cyclodextrin 10, Gellan Gum Gelrite 0.3, Poloxamer 188 1, Tris solution and Citric acid.
Where [9] appears, read: Table 13: 1mg/ml, Polyethylene glycol 400 5, Hydroxypropyl-β-cyclodextrin 10, Tris-HCl buffer (pH 8.3) 50mM, Carbomer 0.48, Poloxamer 188 1.
[10] abbreviates: Table 14: 5mg/ml, Polyethylene glycol 400 10, Hydroxypropyl-β-cyclodextrin 10, Gellan Gum Gelrite 0.3, Poloxamer 188 1, 0.5 M Tris solution 2, 0.1 M Citric acid 1.

pIC50: −log10 of the molar value. ≈ marks a conversion by molar mass, not a printed value. Bounds are passed on as bounds.

T2 sequence (P35968 20-1356): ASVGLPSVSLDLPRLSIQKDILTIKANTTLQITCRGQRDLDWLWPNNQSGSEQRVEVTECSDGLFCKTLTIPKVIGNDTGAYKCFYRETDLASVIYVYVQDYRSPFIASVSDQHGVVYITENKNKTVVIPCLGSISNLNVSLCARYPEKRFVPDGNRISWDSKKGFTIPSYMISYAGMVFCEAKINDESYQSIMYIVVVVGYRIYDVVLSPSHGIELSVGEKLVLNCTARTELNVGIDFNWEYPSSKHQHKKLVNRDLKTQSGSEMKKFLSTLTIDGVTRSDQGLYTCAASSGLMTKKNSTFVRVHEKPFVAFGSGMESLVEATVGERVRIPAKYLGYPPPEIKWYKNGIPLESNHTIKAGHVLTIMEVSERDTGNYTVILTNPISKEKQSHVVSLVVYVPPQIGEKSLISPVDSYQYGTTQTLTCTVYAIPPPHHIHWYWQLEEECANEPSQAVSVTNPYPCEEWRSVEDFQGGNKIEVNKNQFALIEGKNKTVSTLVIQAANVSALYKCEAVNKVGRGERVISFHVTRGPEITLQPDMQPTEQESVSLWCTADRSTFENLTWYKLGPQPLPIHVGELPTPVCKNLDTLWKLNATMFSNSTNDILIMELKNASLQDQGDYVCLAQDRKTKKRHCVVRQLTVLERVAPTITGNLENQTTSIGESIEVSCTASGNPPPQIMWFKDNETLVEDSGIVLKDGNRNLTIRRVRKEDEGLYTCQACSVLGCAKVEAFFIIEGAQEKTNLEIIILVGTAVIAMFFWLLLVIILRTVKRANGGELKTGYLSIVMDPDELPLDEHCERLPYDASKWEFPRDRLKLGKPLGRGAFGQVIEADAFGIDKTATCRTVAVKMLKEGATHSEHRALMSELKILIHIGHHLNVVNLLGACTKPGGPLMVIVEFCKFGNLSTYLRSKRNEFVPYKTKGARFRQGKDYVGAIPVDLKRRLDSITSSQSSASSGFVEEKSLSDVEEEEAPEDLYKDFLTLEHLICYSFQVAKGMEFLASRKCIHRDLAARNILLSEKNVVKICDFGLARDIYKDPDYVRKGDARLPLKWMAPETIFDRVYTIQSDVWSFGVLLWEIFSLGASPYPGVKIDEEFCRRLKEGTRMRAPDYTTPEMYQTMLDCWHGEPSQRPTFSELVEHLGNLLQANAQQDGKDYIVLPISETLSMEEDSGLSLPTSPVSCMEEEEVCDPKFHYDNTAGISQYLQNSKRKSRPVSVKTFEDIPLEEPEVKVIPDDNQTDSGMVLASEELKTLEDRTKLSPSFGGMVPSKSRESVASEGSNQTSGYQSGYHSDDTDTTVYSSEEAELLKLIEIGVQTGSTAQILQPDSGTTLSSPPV
T1 sequence (P00533 25-1210): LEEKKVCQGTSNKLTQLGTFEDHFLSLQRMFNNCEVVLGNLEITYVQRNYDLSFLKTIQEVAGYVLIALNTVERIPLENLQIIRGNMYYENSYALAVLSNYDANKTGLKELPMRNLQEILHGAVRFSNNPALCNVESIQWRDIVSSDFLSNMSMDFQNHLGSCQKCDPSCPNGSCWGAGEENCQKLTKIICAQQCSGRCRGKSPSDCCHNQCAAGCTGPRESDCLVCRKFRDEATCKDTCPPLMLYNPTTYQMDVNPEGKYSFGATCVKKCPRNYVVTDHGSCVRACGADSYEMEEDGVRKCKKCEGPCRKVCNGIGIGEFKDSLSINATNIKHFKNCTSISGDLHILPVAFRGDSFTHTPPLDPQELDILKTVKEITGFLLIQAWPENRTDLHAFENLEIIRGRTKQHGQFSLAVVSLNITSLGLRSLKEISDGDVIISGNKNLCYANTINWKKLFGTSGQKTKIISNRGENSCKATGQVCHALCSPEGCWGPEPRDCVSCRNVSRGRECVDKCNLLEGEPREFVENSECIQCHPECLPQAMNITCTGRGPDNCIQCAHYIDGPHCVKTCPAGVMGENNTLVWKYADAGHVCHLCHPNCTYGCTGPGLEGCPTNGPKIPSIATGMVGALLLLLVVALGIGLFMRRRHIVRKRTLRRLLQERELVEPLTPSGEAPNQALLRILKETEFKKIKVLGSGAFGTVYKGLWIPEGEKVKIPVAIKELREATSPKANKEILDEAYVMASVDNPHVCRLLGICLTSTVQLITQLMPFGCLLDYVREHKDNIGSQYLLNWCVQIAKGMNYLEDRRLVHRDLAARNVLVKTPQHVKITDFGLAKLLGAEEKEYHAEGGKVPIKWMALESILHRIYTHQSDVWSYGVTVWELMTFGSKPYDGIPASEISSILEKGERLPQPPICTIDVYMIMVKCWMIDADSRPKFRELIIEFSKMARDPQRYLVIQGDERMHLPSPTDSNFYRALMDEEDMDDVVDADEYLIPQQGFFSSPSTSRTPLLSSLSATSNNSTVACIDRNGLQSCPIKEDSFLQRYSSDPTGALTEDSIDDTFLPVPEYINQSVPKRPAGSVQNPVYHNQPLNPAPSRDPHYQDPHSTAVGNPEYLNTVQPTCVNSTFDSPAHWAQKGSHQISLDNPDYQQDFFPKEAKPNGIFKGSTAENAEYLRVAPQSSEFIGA

On to `CCNC(=O)c1cc(F)ccc1Sc1ccc2c(/C=C/c3cnn(CCCN4CCCC4)c3)n[nH]c2c1` [Compound I-104, N-ethyl-5-fluoro-2-({3-[(E)-2-{1-[3-(pyrrolidin-1-yl)propyl]-1H-pyrazol-4-yl}ethenyl]-1H-indazol-6-yl}sulfanyl)benzamide], for which the pIC50 in series [1] is under 4.22. The amount in solution in series [2] (solubility at 8 h) came to 2180 µg/mL (≈ 4200 µM). This compound yielded a fraction unbound at 2 h, 2 µM in series [3] of over 0.05. Moreover, in series [4] (setting [7]), the “Osmolality (mOsm/kg)” value is about 300 mOsm/kg, the “State Description: pH” value is given as about 7 and the “State Description: state” value is “solution”.

Consider `CNC(=O)c1cccc(F)c1Sc1ccc2c(/C=C/c3ccc(CN4CCCC4)cn3)n[nH]c2c1` [Compound I-68, 3-fluoro-N-methyl-2-({3-[(E)-2-{5-[(pyrrolidin-1-yl)methyl]pyridin-2-yl}ethenyl]-1H-indazol-6-yl}sulfanyl)benzamide], for which the pIC50 in series [5] is 8.00 to 9.00; in series [1] it was 4.22 to 5.22.

Turning to `CCNC(=O)c1ccccc1Sc1ccc2c(/C=C/c3ccc(CN(CC)CC)cn3)n[nH]c2c1` [Compound I-86, 2-({3-[(E)-2-{5-[(diethylamino)methyl]pyridin-2-yl}ethenyl]-1H-indazol-6-yl}thio)-N-ethylbenzamide], the solubility at 8 h in series [2] turned out to be 1130 µg/mL (≈ 2320 µM). Moreover, the fraction unbound at 2 h, 2 µM in series [3] was 0.01 to 0.05. Also, in series [4] (setting [8]), the “State Description: pH” value is reported as about 5.5 and the “State Description: state” value is “near-clear solution”. Also, in series [4] (setting [7]), the “Osmolality (mOsm/kg)” value is about 300 mOsm/kg, the “State Description: pH” value is about 7 and the “State Description: state” value is given as “solution”.

In series [2], `CCN(CC)Cc1ccc(/C=C/c2n[nH]c3cc(Sc4ccc(F)cc4C(=O)NC4CC4)ccc23)nc1` [Compound I-84, N-cyclopropyl-5-fluoro-2-({3-[(E)-2-{5-[(diethylamino)methyl]pyridin-2-yl}ethenyl]-1H-indazol-6-yl}thio)benzamide] registered a solubility at 8 h of 599 µg/mL (≈ 1160 µM). This compound returned a fraction unbound at 2 h, 2 µM in series [3] of over 0.05. The “State Description: pH” value in series [4] (setting [9]) is listed as about 5; in series [4] (setting [10]), about 7.5; in series [4] (setting [8]), about 5.5; in series [4] (setting [7]), about 7. The “State Description: state” value in series [4] (setting [9]) is recorded as “homogeneous suspension”; in series [4] (setting [10]) it was “near-clear solution”; in series [4] (setting [8]), “gel”; in series [4] (setting [7]) it was “solution”. The “Osmolality (mOsm/kg)” value in series [4] (setting [7]) was about 300 mOsm/kg.

For the compound `CCNC(=O)c1ccccc1Sc1ccc2c(/C=C/c3cnn(CCCN4CCCC4)c3)n[nH]c2c1` [Compound I-101], the pIC50 is at least 9.00 in series [5] and 4.22 to 5.22 in series [1].

With `O=C(NC1CC1)c1ccccc1Sc1ccc2c(/C=C/c3cc(CCCN4CCCC4)ccn3)n[nH]c2c1` [Compound I-120], the pIC50 in series [5] was at least 9.00; in series [1], under 4.22.

On to `CCNC(=O)c1cccc(F)c1Sc1ccc2c(/C=C/c3cc(CN4CCCC4)ccn3)n[nH]c2c1` [Compound I-114], for which the figures for the pIC50 in series [5] and in series [1] were under 7.00 and under 4.22, respectively.

Regarding `CCNC(=O)c1cccc(F)c1Sc1ccc2c(/C=C/c3ccc(CN4CCCC4)cn3)n[nH]c2c1` [Compound I-75, N-ethyl-3-fluoro-2-({3-[(E)-2-{5-[(pyrrolidin-1-yl)methyl]pyridin-2-yl}ethenyl]-1H-indazol-6-yl}sulfanyl)benzamide], in series [4] (setting [7]), the “State Description: pH” value is recorded as about 7 and the “State Description: state” value is recorded as “solution”.

With `O=C(NC1CC1)c1ccccc1Sc1ccc2c(/C=C/c3cc(OCCN4CCCC4)ccn3)n[nH]c2c1` [Compound I-110, N-cyclopropyl-2-({3-[(E)-2-{4-[2-(pyrrolidin-1-yl)ethoxy]pyridin-2-yl}ethenyl]-1H-indazol-6-yl}sulfanyl)benzamide], the “State Description” value was “near-clear solution” in series [6] (Compound 10 mg/ml, 1M Methanesulfonic Acid 2%) and “near-clear solution” in series [6] (Compound 20 mg/ml, 1M Methanesulfonic Acid 4%).

Usually pIC50 stands for the IC50 on a negative log10 scale, so that one unit is a factor of ten. Usually solubility stands for the concentration that dissolves in the medium under given conditions. Lower therefore signals a poorly soluble substance. As usually defined, the fraction unbound is free concentration divided by total concentration. Lower therefore signals little free substance.
